According to ChEMBL document CHEMBL3612057, “Discovery of indolizines containing triazine moiety as new leads for the development of antitumoral agents targeting mitotic events” (2015):
The source made the active and inactive calls. No cut-off for these calls is given here.

Columns and labels:
CCRF-CEM = assay: Cytotoxicity against human CCRF-CEM cells assessed as growth inhibition at 10 uM after 24 hrs by SRB assay; format: functional
HL-60(TB) = assay: Cytotoxicity against human HL-60(TB) cells assessed as growth inhibition at 10 uM after 24 hrs by SRB assay; format: functional
K562 = assay: Cytotoxicity against human K562 cells assessed as growth inhibition at 10 uM after 24 hrs by SRB assay; format: functional
RPMI-8226 = assay: Cytotoxicity against human RPMI8226 cells assessed as growth inhibition at 10 uM after 24 hrs by SRB assay; format: functional
SR = assay: Cytotoxicity against human SR cells assessed as growth inhibition at 10 uM after 24 hrs by SRB assay; format: functional; settings: for inhibition of growth at 10 µM: read-out: GI
A549 = assay: Cytotoxicity against human A549 cells assessed as growth inhibition at 10 uM after 24 hrs by SRB assay; format: functional
HOP-62 = assay: Cytotoxicity against human HOP62 cells assessed as growth inhibition at 10 uM after 24 hrs by SRB assay; format: functional
HOP-92 = assay: Cytotoxicity against human HOP92 cells assessed as growth inhibition at 10 uM after 24 hrs by SRB assay; format: functional
NCI-H226 = assay: Cytotoxicity against human NCI-H226 cells assessed as growth inhibition at 10 uM after 24 hrs by SRB assay; format: functional
NCI-H460 = assay: Cytotoxicity against human NCI-H460 cells assessed as growth inhibition at 10 uM after 24 hrs by SRB assay; format: functional
NCI-H522 = assay: Cytotoxicity against human NCI-H522 cells assessed as growth inhibition at 10 uM after 24 hrs by SRB assay; format: functional
HCT-116 = assay: Cytotoxicity against human HCT116 cells assessed as growth inhibition at 10 uM after 24 hrs by SRB assay; format: functional
SF-295 = assay: Cytotoxicity against human SF295 cells assessed as growth inhibition at 10 uM after 24 hrs by SRB assay; format: functional
SF-539 = assay: Cytotoxicity against human SF539 cells assessed as growth inhibition at 10 uM after 24 hrs by SRB assay; format: functional
SNB-75 = assay: Cytotoxicity against human SNB75 cells assessed as growth inhibition at 10 uM after 24 hrs by SRB assay; format: functional; settings: for inhibition of growth at 10 µM: SNB-75, 24 h, read-out: GI
U-251 = assay: Cytotoxicity against human U251 cells assessed as growth inhibition at 10 uM after 24 hrs by SRB assay; format: functional
Malme-3M = assay: Cytotoxicity against human MALME-3M cells assessed as growth inhibition at 10 uM after 24 hrs by SRB assay; format: functional; settings: for inhibition of growth at 10 µM: read-out: GI
MDA-MB-435 = assay: Cytotoxicity against human MDA-MB-435 cells assessed as growth inhibition at 10 uM after 24 hrs by SRB assay; format: functional
SK-MEL-28 = assay: Cytotoxicity against human SK-MEL-28 cells assessed as growth inhibition at 10 uM after 24 hrs by SRB assay; format: functional
SK-MEL-5 = assay: Cytotoxicity against human SK-MEL-5 cells assessed as growth inhibition at 10 uM after 24 hrs by SRB assay; format: functional
UACC-257 = assay: Cytotoxicity against human UACC257 cells assessed as growth inhibition at 10 uM after 24 hrs by SRB assay; format: functional; settings: for inhibition of growth at 10 µM: UACC-257, 24 h, read-out: GI
UACC-62 = assay: Cytotoxicity against human UACC62 cells assessed as growth inhibition at 10 uM after 24 hrs by SRB assay; format: functional
OVCAR-3 = assay: Cytotoxicity against human OVCAR3 cells assessed as growth inhibition at 10 uM after 24 hrs by SRB assay; format: functional
OVCAR-4 = assay: Cytotoxicity against human OVCAR4 cells assessed as growth inhibition at 10 uM after 24 hrs by SRB assay; format: functional
OVCAR-8 = assay: Cytotoxicity against human OVCAR8 cells assessed as growth inhibition at 10 uM after 24 hrs by SRB assay; format: functional
NCI/ADR-RES = assay: Cytotoxicity against human NCI/ADR-RES cells assessed as growth inhibition at 10 uM after 24 hrs by SRB assay; format: functional
SK-OV-3 = assay: Cytotoxicity against human SKOV3 cells assessed as growth inhibition at 10 uM after 24 hrs by SRB assay; format: functional
786-0 = assay: Cytotoxicity against human 786-0 cells assessed as growth inhibition at 10 uM after 24 hrs by SRB assay; format: functional
ACHN = assay: Cytotoxicity against human ACHN cells assessed as growth inhibition at 10 uM after 24 hrs by SRB assay; format: functional
CAKI-1 = assay: Cytotoxicity against human CAKI-1 cells assessed as growth inhibition at 10 uM after 24 hrs by SRB assay; format: functional
RXF 393 = assay: Cytotoxicity against human RXF393 cells assessed as growth inhibition at 10 uM after 24 hrs by SRB assay; format: functional
TK-10 = assay: Cytotoxicity against human TK10 cells assessed as growth inhibition at 10 uM after 24 hrs by SRB assay; format: functional
PC-3 = assay: Cytotoxicity against human PC3 cells assessed as growth inhibition at 10 uM after 24 hrs by SRB assay; format: functional
MCF7 = assay: Cytotoxicity against human MCF7 cells assessed as growth inhibition at 10 uM after 24 hrs by SRB assay; format: functional; settings: for inhibition of growth at 10 µM: MCF7, 24 h, read-out: GI
MDA-MB-231 = assay: Cytotoxicity against human MDA-MB-231 cells assessed as growth inhibition at 10 uM after 24 hrs by SRB assay; format: functional; settings: for inhibition of growth at 10 µM: MDA-MB-231, 24 h, read-out: GI
Hs-578T = assay: Cytotoxicity against human Hs578T cells assessed as growth inhibition at 10 uM after 24 hrs by SRB assay; format: functional
T47D = assay: Cytotoxicity against human T47D cells assessed as growth inhibition at 10 uM after 24 hrs by SRB assay; format: functional
Ovis aries = species on record: Ovis aries; assay: Inhibition of sheep tubulin polymerization at 100 uM by fluorescence assay

Compound	growth inhibition (GI) (HL-60(TB))	growth inhibition (GI) (K562)	growth inhibition (GI) (A549)	growth inhibition (GI) (HOP-62)	growth inhibition (GI) (HOP-92)	growth inhibition (GI) (NCI-H226)	growth inhibition (GI) (NCI-H460)	growth inhibition (GI) (NCI-H522)	growth inhibition (GI) (SF-539)	growth inhibition (GI) (U-251)	growth inhibition (GI) (UACC-62)	growth inhibition (GI) (OVCAR-3)	growth inhibition (GI) (OVCAR-8)	growth inhibition (GI) (NCI/ADR-RES)	growth inhibition (GI) (SK-OV-3)	growth inhibition (GI) (786-0)	growth inhibition (GI) (ACHN)	growth inhibition (GI) (TK-10)	growth inhibition (GI) (Hs-578T)	inhibition (Ovis aries)	further results
COc1nc(OC)nc(-c2cc(C(=O)c3ccc(C)cc3)n3ccccc23)n1	inactive	inactive	inactive	inactive	inactive	inactive	inactive	inactive	inactive	inactive	inactive	inactive	inactive	inactive	inactive	inactive	inactive	inactive	inactive	inactive	inhibition of growth at 10 µM (CCRF-CEM; read-out: GI): 13%; inhibition of growth at 10 µM (RPMI-8226; RPMI-8226, 24 h, read-out: GI): 26%; inhibition of growth at 10 µM (SR): 22%; inhibition of growth at 10 µM (HCT-116; HCT-116, 24 h, read-out: GI): 12%; growth inhibition (GI) (SF-295): inactive; inhibition of growth at 10 µM (SNB-75): 18%; growth inhibition (GI) (Malme-3M): inactive; growth inhibition (GI) (MDA-MB-435): inactive; growth inhibition (GI) (SK-MEL-28): inactive; inhibition of growth at 10 µM (SK-MEL-5; SK-MEL-5, 24 h, read-out: GI): 19%; growth inhibition (GI) (UACC-257): inactive; growth inhibition (GI) (OVCAR-4): inactive; inhibition of growth at 10 µM (CAKI-1; CAKI-1, 24 h, read-out: GI): 43%; growth inhibition (GI) (RXF 393): inactive; inhibition of growth at 10 µM (PC-3; PC-3, 24 h, read-out: GI): 13%; inhibition of growth at 10 µM (MCF7): 10%; inhibition of growth at 10 µM (MDA-MB-231): 35%; inhibition of growth at 10 µM (T47D; read-out: GI): 15%
COc1nc(OC)nc(-c2cc(C(=O)c3ccc(Br)cc3)n3ccc(C#N)cc23)n1	inactive	inactive	inactive	inactive	inactive	inactive	inactive	inactive	inactive	inactive	inactive	inactive	inactive	inactive	inactive	inactive	inactive	inactive	inactive	inactive	growth inhibition (GI) (CCRF-CEM): inactive; growth inhibition (GI) (RPMI-8226): inactive; growth inhibition (GI) (SR): inactive; growth inhibition (GI) (HCT-116): inactive; growth inhibition (GI) (SF-295): inactive; inhibition of growth at 10 µM (SNB-75): 27%; growth inhibition (GI) (Malme-3M): inactive; growth inhibition (GI) (MDA-MB-435): inactive; growth inhibition (GI) (SK-MEL-28): inactive; growth inhibition (GI) (SK-MEL-5): inactive; inhibition of growth at 10 µM (UACC-257): 11%; growth inhibition (GI) (OVCAR-4): inactive; growth inhibition (GI) (CAKI-1): inactive; inhibition of growth at 10 µM (RXF 393; RXF 393, 24 h, read-out: GI): 14%; growth inhibition (GI) (PC-3): inactive; growth inhibition (GI) (MCF7): inactive; inhibition of growth at 10 µM (MDA-MB-231): 11%; growth inhibition (GI) (T47D): inactive
COc1nc(OC)nc(-c2cc(C(=O)c3cc(OC)c(OC)c(OC)c3)n3ccccc23)n1	inactive		inactive	inactive	inactive	inactive	inactive	inactive	inactive	inactive	inactive	inactive	inactive	inactive	inactive	inactive	inactive	inactive	inactive	inactive	growth inhibition (GI) (CCRF-CEM): inactive; inhibition of growth at 10 µM (K562; K562, 24 h, read-out: GI): 10%; growth inhibition (GI) (RPMI-8226): inactive; inhibition of growth at 10 µM (SR): 20%; growth inhibition (GI) (HCT-116): inactive; growth inhibition (GI) (SF-295): inactive; growth inhibition (GI) (SNB-75): inactive; inhibition of growth at 10 µM (Malme-3M): 11%; inhibition of growth at 10 µM (MDA-MB-435; MDA-MB-435, 24 h, read-out: GI): 35%; growth inhibition (GI) (SK-MEL-28): inactive; growth inhibition (GI) (SK-MEL-5): inactive; growth inhibition (GI) (UACC-257): inactive; growth inhibition (GI) (OVCAR-4): inactive; growth inhibition (GI) (CAKI-1): inactive; growth inhibition (GI) (RXF 393): inactive; growth inhibition (GI) (PC-3): inactive; growth inhibition (GI) (MCF7): inactive; growth inhibition (GI) (MDA-MB-231): inactive; growth inhibition (GI) (T47D): inactive
COc1nc(OC)nc(-c2cc(C(=O)c3ccc(Br)cc3)n3ccc(C)cc23)n1	inactive	inactive	inactive	inactive	inactive	inactive	inactive	inactive	inactive	inactive	inactive	inactive	inactive	inactive	inactive	inactive	inactive	inactive	inactive	inactive	growth inhibition (GI) (CCRF-CEM): inactive; growth inhibition (GI) (RPMI-8226): inactive; growth inhibition (GI) (SR): inactive; growth inhibition (GI) (HCT-116): inactive; inhibition of growth at 10 µM (SF-295; SF-295, 24 h, read-out: GI): 20%; growth inhibition (GI) (SNB-75): inactive; inhibition of growth at 10 µM (Malme-3M): 73%; growth inhibition (GI) (MDA-MB-435): inactive; inhibition of growth at 10 µM (SK-MEL-28; SK-MEL-28, 24 h, read-out: GI): 30%; growth inhibition (GI) (SK-MEL-5): inactive; inhibition of growth at 10 µM (UACC-257): 31%; inhibition of growth at 10 µM (OVCAR-4; OVCAR-4, 24 h, read-out: GI): 95%; growth inhibition (GI) (CAKI-1): inactive; growth inhibition (GI) (PC-3): inactive; inhibition of growth at 10 µM (MCF7): 38%; growth inhibition (GI) (MDA-MB-231): inactive; growth inhibition (GI) (T47D): inactive
